Measurements: publication PMC10855066, “Anti-Inflammatory and Antioxidant Pyrrolo[3,4-d]pyridazinone Derivatives Interact with DNA and Bind to Plasma Proteins—Spectroscopic and In Silico Studies” (International Journal of Molecular Sciences, 2024)

Tested on: T1, α1-acid-glycoprotein (AAG); orosomucoid
T1 construct: gene ORM1; docking only used 3kq0
Experiment: intrinsic fluorescence quenching, excitation […] nm
Format: binding
Settings: double-log; 297 K, 0.01 M phosphate buffer pH 7.4, 1.0 µM AAG, ligand stock in EtOH, inner filter corrected

Row | Compound | Binding / Kb.10^4 [dm^3.mol^-1]
1 | Cc1c2c(OCc3nn(CN4CCN(c5ccccc5)CC4)c(=S)o3)nn(C)c(=O)c2c(C)n1-c1ccccc1 [compound 3, pyrrolo[3,4-d]pyridazinone derivative 3] | 4.57 × 10^4 dm^3·mol^−1
2 | Cc1c2c(OCc3nn(CN4CCN(c5ccc([N+](=O)[O-])cc5)CC4)c(=S)o3)nn(C)c(=O)c2c(C)n1-c1ccccc1 [compound 4, pyrrolo[3,4-d]pyridazinone derivative 4] | 5.01 × 10^4 dm^3·mol^−1
3 | Cc1c2c(OCc3nn(CN4CCC(O)(c5ccc(Cl)cc5)CC4)c(=S)o3)nn(C)c(=O)c2c(C)n1-c1ccccc1 [compound 5, pyrrolo[3,4-d]pyridazinone derivative 5] | 1.41 × 10^4 dm^3·mol^−1
4 | CCCCn1c(C)c2c(OCc3nn(CN4CCC(O)(c5ccc(Cl)cc5)CC4)c(=S)o3)nn(C)c(=O)c2c1C [compound 2, pyrrolo[3,4-d]pyridazinone derivative 2] | 4.57 × 10^4 dm^3·mol^−1
5 | CCCCn1c(C)c2c(OCc3nn(CN4CCN(c5ccccc5)CC4)c(=S)o3)nn(C)c(=O)c2c1C [compound 1, pyrrolo[3,4-d]pyridazinone derivative 1] | 3.09 × 10^4 dm^3·mol^−1
